Laboratory results from publication PMC11012124, “Synthesis of Novel Triazine-Based Chalcones and 8,9-dihydro-7H-pyrimido[4,5-b][1,4]diazepines as Potential Leads in the Search of Anticancer, Antibacterial and Antifungal Agents” (International Journal of Molecular Sciences, 2024).

What was measured:
[1] = Hemolytic activity, spectrophotometric; format: cell-based, human; settings: human, human red blood cells (huRBC), 5% hematocrit, 200 μg/mL, 37 °C
[2] = tested on: CCRF-CEM; experiment: cells; settings: Homo sapiens, 48 h
[3] = tested on: K-562; experiment: cells; settings: Homo sapiens, K562, 48 h
[4] = tested on: MOLT-4; experiment: cells; settings: Homo sapiens, MOLT-4, 48 h
[5] = tested on: A549/ATCC; experiment: cells; settings: Homo sapiens, A549, 48 h
[6] = tested on: EKVX; experiment: cells; settings: Homo sapiens, 48 h
[7] = tested on: HOP-62; experiment: cells; settings: Homo sapiens, HOP-62, 48 h
[8] = tested on: HOP-92; experiment: cells; settings: Homo sapiens, HOP-92, 48 h
[9] = tested on: NCI-H23; experiment: cells; settings: Homo sapiens, NCI-H23, 48 h
[10] = tested on: NCI-H460; experiment: cells; settings: Homo sapiens, NCI-H460, 48 h
[11] = tested on: COLO 205; experiment: cells; settings: Homo sapiens, COLO 205, 48 h
[12] = tested on: HCC-2998; experiment: cells; settings: Homo sapiens, HCC 2998, 48 h
[13] = tested on: HCT-116; experiment: cells; settings: Homo sapiens, HCT-116, 48 h
[14] = tested on: HCT-15; experiment: cells; settings: Homo sapiens, HCT-15, 48 h
[15] = tested on: HT29; experiment: cells; settings: Homo sapiens, HT-29, 48 h
[16] = tested on: KM12; experiment: cells; settings: Homo sapiens, KM12, 48 h
[17] = tested on: SW-620; experiment: cells; settings: Homo sapiens, SW-620, 48 h
[18] = tested on: SF-268; experiment: cells; settings: Homo sapiens, SF-268, 48 h
[19] = tested on: SF-295; experiment: cells; settings: Homo sapiens, SF-295, 48 h
[20] = tested on: U251; experiment: cells; settings: Homo sapiens, U-251, 48 h
[21] = tested on: LOX IMVI; experiment: cells; settings: Homo sapiens, 48 h
[22] = tested on: MALME-3M; experiment: cells; settings: Homo sapiens, 48 h
[23] = tested on: SK-MEL-2; experiment: cells; settings: Homo sapiens, SK-MEL-2, 48 h
[24] = tested on: SK-MEL-28; experiment: cells; settings: Homo sapiens, SK-MEL-28, 48 h
[25] = tested on: SK-MEL-5; experiment: cells; settings: Homo sapiens, SK-MEL-5, 48 h
[26] = tested on: IGROV1; experiment: cells; settings: Homo sapiens, IGROV-1, 48 h
[27] = tested on: OVCAR-3; experiment: cells; settings: Homo sapiens, OVCAR-3, 48 h
[28] = tested on: OVCAR-5; experiment: cells; settings: Homo sapiens, OVCAR-5, 48 h
[29] = tested on: SK-OV-3; experiment: cells; settings: Homo sapiens, SK-OV-3, 48 h
[30] = tested on: 786-0; experiment: cells; settings: Homo sapiens, 786-0, 48 h
[31] = tested on: A498; experiment: cells; settings: Homo sapiens, A498, 48 h
[32] = tested on: ACHN; experiment: cells; settings: Homo sapiens, 48 h
[33] = tested on: CAKI-1; experiment: cells; settings: Homo sapiens, CAKI-1, 48 h
[34] = tested on: UO-31; experiment: cells; settings: Homo sapiens, UO-31, 48 h
[35] = tested on: PC-3; experiment: cells; settings: Homo sapiens, PC-3, 48 h
[36] = tested on: MDA-MB-231/ATCC; experiment: cells; settings: Homo sapiens, MDA-MB-231, 48 h
[37] = tested on: T-47D; experiment: cells; settings: Homo sapiens, T47D, 48 h

COc1cc(/C=C/C(=O)c2ccccc2)ccc1Oc1nc(Nc2ccc(F)cc2)nc(N(C)C)n1 [21a]
hemolysis at 24 h, 200 µg/mL [1]: 2%
GI50 [2]: 3.38 µM
CC50 ([2]; read-out: LC50): > 100 µM
GI50 ([3]; K-562, 48 h): 3.57 µM
CC50 ([3]; read-out: LC50): > 100 µM
GI50 [4]: 2.56 µM
CC50 ([4]; read-out: LC50): > 100 µM
GI50 [5]: 11.7 µM
CC50 ([5]; read-out: LC50): > 100 µM
GI50 [6]: 4.73 µM
CC50 ([6]; read-out: LC50): > 100 µM
GI50 [7]: 26.6 µM
CC50 ([7]; read-out: LC50): > 100 µM
GI50 [8]: 2.08 µM
CC50 ([8]; read-out: LC50): > 100 µM
GI50 [9]: 12.6 µM
CC50 ([9]; read-out: LC50): > 100 µM
GI50 [10]: 9.14 µM
CC50 ([10]; read-out: LC50): 93.2 µM
GI50 [11]: 15.1 µM
CC50 ([11]; read-out: LC50): > 100 µM
GI50 [12]: 12.9 µM
CC50 ([12]; read-out: LC50): > 100 µM
GI50 [13]: 3.21 µM
CC50 ([13]; read-out: LC50): 45.5 µM
GI50 [14]: 3.31 µM
CC50 ([14]; read-out: LC50): 36.2 µM
GI50 [15]: 4.36 µM
CC50 ([15]; read-out: LC50): 59.7 µM
GI50 [16]: 14.9 µM
CC50 ([16]; read-out: LC50): > 100 µM
GI50 [17]: 1.81 µM
CC50 ([17]; read-out: LC50): 8.7 µM
GI50 [18]: 12.2 µM
CC50 ([18]; read-out: LC50): > 100 µM
GI50 [19]: 6.89 µM
CC50 ([19]; read-out: LC50): > 100 µM
GI50 ([20]; U251, 48 h): 2.84 µM
CC50 ([20]; read-out: LC50): 60.6 µM
GI50 [21]: 1.6 µM
CC50 ([21]; read-out: LC50, LOX IMVI, 48 h): 6.23 µM
GI50 [22]: 15.9 µM
CC50 ([22]; read-out: LC50): 98.8 µM
GI50 [23]: 4.68 µM
CC50 ([23]; read-out: LC50): 63.1 µM
GI50 [24]: 12.2 µM
CC50 ([24]; read-out: LC50): 84.6 µM
GI50 [25]: 6.21 µM
CC50 ([25]; read-out: LC50): > 100 µM
GI50 [26]: 18.7 µM
CC50 ([26]; read-out: LC50): > 100 µM
GI50 [27]: 11.8 µM
CC50 ([27]; read-out: LC50): > 100 µM
GI50 [28]: 13.9 µM
CC50 ([28]; read-out: LC50): > 100 µM
GI50 [29]: 48.6 µM
CC50 ([29]; read-out: LC50): > 100 µM
GI50 [30]: 20.5 µM
CC50 ([30]; read-out: LC50): > 100 µM
GI50 [31]: 27 µM
CC50 ([31]; read-out: LC50): > 100 µM
GI50 [32]: 8.29 µM
CC50 ([32]; read-out: LC50): > 100 µM
GI50 [33]: 5.72 µM
CC50 ([33]; read-out: LC50): > 100 µM
GI50 [34]: 4.4 µM
CC50 ([34]; read-out: LC50): > 100 µM
GI50 [35]: 10 µM
CC50 ([35]; read-out: LC50): > 100 µM
GI50 [36]: 6.92 µM
CC50 ([36]; read-out: LC50): 56.1 µM
GI50 [37]: 3.36 µM
CC50 ([37]; read-out: LC50): > 100 µM
